# Tests used:
# [1] = tested on: mice; assay: Tail suspension test (TST); assay type: in vivo
# Method: (§1) All animal experiment procedures of the present disclosure were conducted in compliance with the preliminary review and ethics regulations of the Animal Experiment Ethics Committee of Daegu Haany University. 4-week-old male ICR mice (SPF/VAF CrljBgi:CD-1) were supplied from the Daehan Biolink (Chungcheongbuk-do, Korea), and adapted and used for 7 days in the pharmacology animal laboratory of Daegu Haany University. Each group consisted of 8 mice, and 5 mice were housed in polycarbonate mice cages and bred in a breeding room where a temperature of 23±1° C., humidity of 50±5%, and lighting time of 07:00 to 19:00 (12-hour cycle) were kept constant. During the adaptation period, feed and water were supplied without restrictions. […]
# (§2) In order to verify whether there was an antidepressant effect of the herbal medicine complex extracts of Zizyphi spinosi Semen, Jujubae Fructus, Hordei Fructus Germinatus, Glycyrrhizae Radix et Rhizoma, Angelicae Gigantis Radix, and Beta vulgaris of the present disclosure, a tail suspension test (TST) was performed using experimental animals. The antidepressant effect was determined by measuring the immobility time during the tail suspension test, and experimental animals with tails alternated mobility and immobility, and the shorter the immobility time, there was the antidepressant effect. […]
# [2] = tested on: mice; assay: Forced swimming test (FST); assay type: in vivo
# Method: as §1
# as §2, with “a forced swimming” for “a tail suspension”, “test (FST)” for “test (TST)”, “the forced swimming” for “the tail suspension”, “and it was meant that” for “and experimental animals with tails alternated mobility and immobility, and the”, “time, the greater” for “time, there was”
# [3] = imipramine 15 mg/kg intraperitoneally
structure (smiles),measurement,setting,value
"CN(C)CCCN1c2ccccc2CCc2ccccc21 [Imipramine, imipramine]",immobility time compared to the control group,[1]; [3],decreased
same,Immobility time,"[1]; measured for 10 minutes, imipramine 15 mg/kg intraperitoneally for 1 week",157.82 ± 11.02 s
same,immobility time compared to the control group,[2]; [3],reduced
same,Immobility time,"[2]; measured for 4 minutes, imipramine 15 mg/kg intraperitoneally for 1 week, test 30 minutes after administration on day 7",177.01 ± 5.67 s
